Results on one molecule are retold here after ChEMBL document CHEMBL5380860, “Design, Synthesis, and Antitumor Activity of Potent and Selective EGFR L858R/T790M Inhibitors and Identification of a Combination Therapy to Overcome Acquired Resistance in Models of Non-small-cell Lung Cancer” (J Med Chem, 2023).

Molecules are shown by their SMILES. Active and inactive are the calls of the source. No cut-off for these calls is given here.

Data set [1] in a line: Selectivity ratio of IC50 for cytotoxicity against human A549 cells harboring wild type EGFR to IC50 for antiproliferative activity against human NCI-H1975 cells harboring EGFR L858R/T790M mutant. Particulars: read-out: Ratio IC50. It is filed as toxicity, cell-based.
Data set [2] in a line: Selectivity ratio of IC50 for cytotoxicity against human A-431 cells harboring wild type EGFR to IC50 for antiproliferative activity against human NCI-H1975 cells harboring EGFR L858R/T790M mutant. It is filed as toxicity, cell-based. Particulars: read-out: Ratio IC50.
In data set [3] the test system is Epidermal growth factor receptor (Homo sapiens), P00533 [L858R,T790M]. Kind of data set: Inhibition of human partial length EGFR (R669 to V1011 residues) L858R/T790M mutant expressed in mammalian expression system assessed as residual activity at 1 uM by KINOMEscan analysis.
Data set [4] has as its target T1, Tyrosine-protein kinase Tec (Homo sapiens) (UniProt P42680).
T1 sequence (whole entry): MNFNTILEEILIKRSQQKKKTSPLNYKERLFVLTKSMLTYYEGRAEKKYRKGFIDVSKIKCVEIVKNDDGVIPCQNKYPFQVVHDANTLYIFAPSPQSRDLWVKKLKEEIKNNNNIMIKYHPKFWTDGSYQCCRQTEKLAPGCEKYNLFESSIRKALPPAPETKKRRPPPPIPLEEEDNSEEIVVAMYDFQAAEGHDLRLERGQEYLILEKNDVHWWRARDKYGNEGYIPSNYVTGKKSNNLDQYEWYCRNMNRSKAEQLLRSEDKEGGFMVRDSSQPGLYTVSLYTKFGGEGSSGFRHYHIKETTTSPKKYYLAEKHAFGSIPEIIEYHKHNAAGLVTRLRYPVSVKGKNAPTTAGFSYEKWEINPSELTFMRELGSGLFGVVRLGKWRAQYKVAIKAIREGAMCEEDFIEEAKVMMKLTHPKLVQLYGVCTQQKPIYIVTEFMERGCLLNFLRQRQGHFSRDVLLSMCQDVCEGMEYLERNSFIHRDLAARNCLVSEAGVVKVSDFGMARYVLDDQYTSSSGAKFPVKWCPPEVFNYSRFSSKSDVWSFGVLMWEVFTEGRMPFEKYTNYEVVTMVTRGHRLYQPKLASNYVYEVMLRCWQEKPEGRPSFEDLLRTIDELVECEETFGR
The data set is described as follows: Inhibition of human wild type partial length TEC kinase (L341 to D620 residues) expressed in bacterial expression system assessed as residual activity at 1 uM by KINOMEscan analysis.

For data set [5], the target named is Proto-oncogene tyrosine-protein kinase Src (Homo sapiens, UniProt P12931). Kind of data set: Inhibition of human wild type partial length Src kinase (L240 to L536 residues) expressed in bacterial expression system by KINOMEscan analysis.
Chain of Proto-oncogene tyrosine-protein kinase Src (P12931 2-536 limits assumed): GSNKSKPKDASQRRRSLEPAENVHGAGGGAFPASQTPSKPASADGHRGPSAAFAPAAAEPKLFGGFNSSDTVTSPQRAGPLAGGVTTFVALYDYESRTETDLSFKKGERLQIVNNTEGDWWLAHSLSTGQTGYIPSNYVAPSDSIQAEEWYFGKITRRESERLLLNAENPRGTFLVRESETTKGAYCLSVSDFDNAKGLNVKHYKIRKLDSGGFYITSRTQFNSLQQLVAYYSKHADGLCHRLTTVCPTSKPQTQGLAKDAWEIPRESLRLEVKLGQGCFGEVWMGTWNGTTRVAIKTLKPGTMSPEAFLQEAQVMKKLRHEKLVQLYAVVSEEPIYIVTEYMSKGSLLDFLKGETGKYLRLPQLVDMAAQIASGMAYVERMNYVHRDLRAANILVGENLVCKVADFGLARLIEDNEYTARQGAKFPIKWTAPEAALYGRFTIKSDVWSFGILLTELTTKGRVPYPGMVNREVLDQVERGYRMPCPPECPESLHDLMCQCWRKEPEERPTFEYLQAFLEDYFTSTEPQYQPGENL
Data set [6] has as its target STE20-like serine/threonine-protein kinase (Homo sapiens, UniProt Q9H2G2). Kind of data set: Inhibition of human wild type partial length SLK (S14 to A307 residues) expressed in bacterial expression system by KINOMEscan analysis.
Data set [7] has as its system Epidermal growth factor receptor (Homo sapiens), P00533 [UNDEFINED MUTATION]. The data set is described as follows: Inhibition of EGFR exon del19 mutant in human HCC827 cells assessed as inhibition of EGF-induced EGFR phosphorylation at Tyr1068 residue at 1 uM pretreated with compound for 4 hrs followed by incubation with EGF for 10 mins by western blot analysis. Particulars: time 250.0 min. It is filed as cell-based. A general note: A western blot detects proteins with antibodies after separation by electrophoresis.

The test system of data set [8] is NCI-H1975. The data set is described as follows: Inhibition of clonogenicity in human NCI-H1975 cells assessed as inhibition of colony formation incubated for 14 days by crystal violet staining based analysis. It is filed as functional, cell-based. Particulars: dose 0.1-10 µM, time 14.0 day.
For the next data set, the system named is A549. Kind of data set: Inhibition of clonogenicity in human A549 cells assessed as inhibition of colony formation at 0.1 to 10 uM incubated for 14 days by crystal violet staining based analysis. Particulars: a549, 336 h, dose 0.1-10 µM, time 14 day. In kind it is toxicity, cell-based.
The subject of data set [9] is NCI-H1975. Kind of data set: Inhibition of cell migration in human NCI-H1975 cells incubated for 48 hrs by scratch wound healing assay. In kind it is functional, cell-based. Particulars: dose 0.1-10 µM.
The nature of data set [10]: Half life in Sprague-Dawley rat at 1 mg/kg, iv by LC-MS analysis. In kind it is ADME, organism-based. Particulars: in vivo.
Data set [11] in a line: Toxicity in BALB/c mouse xenografted with human NCI-H1975 cells assessed as change in lung morphological changes at 5 to 20 mg/kg/day, ip by hematoxylin-eosin staining based analysis. Particulars: in vivo, dose 5-20 mg/kg/day. It is filed as organism-based.
In data set [12] the test system is Mus musculus. Kind of data set: In vivo inhibition of EGFR L858R/T790M mutant in ip dosed NCI-H1975 cells xenografted BALB/c mouse assessed as inhibition of AKT phosphorylation at Ser473 residue in tumor by immunoblot analysis. It is filed as functional, organism-based. Particulars: dose 5-20 mg/kg/day.
The test system of data set [13] is Mus musculus. Kind of data set: In vivo inhibition of EGFR L858R/T790M mutant in NCI-H1975 cells xenografted BALB/c mouse assessed as inhibition of AKT phosphorylation at Ser473 residue in tumor at 20 mg/kg/day, ip by immunoblot analysis. It is filed as functional, organism-based.
Data set [14] concerns Epidermal growth factor receptor (Homo sapiens), P00533 [L858R,T790M]. Kind of data set: Inhibition of EGFR L858R/T790M mutant in N-(3-((6-Fluoro-2-((4-(4-methylpiperazin-1-yl)phenyl)amino)quinazolin-4-yl)amino)phenyl)acrylamide-resistant human NCI-H1975 cells assessed as inhibition of EGF-induced Akt phosphorylation at Ser473 residue pretreated with compound for 4 hrs followed by incubation with EGF for 10 mins by western blot analysis. In kind it is cell-based. Particulars: time 250.0 min.

Data set [15] shares this test system. Kind of data set: Inhibition of EGFR L858R/T790M mutant in osimertinib-resistant human NCI-H1975 cells assessed as inhibition of EGF-induced Akt phosphorylation at Ser473 residue pretreated with compound for 4 hrs followed by incubation with EGF for 10 mins by western blot analysis. It is filed as cell-based. Particulars: time 250.0 min.
In data set [16] the test system is NCI-H1975. The data set is described as follows: Antiproliferative activity against N-(3-((6-Fluoro-2-((4-(4-methylpiperazin-1-yl)phenyl)amino)quinazolin-4-yl)amino)phenyl)acrylamide-resistant human NCI-H1975 cells assessed as reduction in cell viability at compound:dasatinib concentration ratio of 3:1 to 1:3 measured after 72 hrs in presence of ACK1 inhibitor, Dasatinib by MTT assay. It is filed as functional, cell-based.

Data set [17] deals with Epidermal growth factor receptor (Homo sapiens), P00533 [L858R,T790M]. Kind of data set: Inhibition of EGFR L858R/T790M mutant in N-(3-((6-Fluoro-2-((4-(4-methylpiperazin-1-yl)phenyl)amino)quinazolin-4-yl)amino)phenyl)acrylamide-resistant human NCI-H1975 cells assessed as inhibition of EGF-induced EGFR phosphorylation at Tyr1068 residue pretreated with compound for 4 hrs followed by incubation with EGF for 10 mins by western blot analysis. Particulars: time 250.0 min. In kind it is cell-based.

For data set [18] the test system is unchanged. The data set is described as follows: Inhibition of EGFR L858R/T790M mutant in N-(3-((6-Fluoro-2-((4-(4-methylpiperazin-1-yl)phenyl)amino)quinazolin-4-yl)amino)phenyl)acrylamide-resistant human NCI-H1975 cells assessed as inhibition of EGF-induced AKT phosphorylation at Ser473 residue pretreated with compound and ACK1 inhibitor, AIM-100 for 4 hrs followed by incubation with EGF for 10 mins by western blot analysis. In kind it is cell-based. Particulars: time 250.0 min.

The nature of data set [19]: Toxicity in BALB/c mouse xenografted with N-(3-((6-Fluoro-2-((4-(4-methylpiperazin-1-yl)phenyl)amino)quinazolin-4-yl)amino)phenyl)acrylamide-resistant human NCI-H1975 cells assessed as changes in heart morphological changes at 20 mg/kg/day, ip in presence of ACK1 inhibitor, dasatinib by hematoxylin-eosin staining based analysis. It is filed as organism-based. Particulars: in vivo. (In general: Xenograft models place foreign cells or tissue in a host animal.)

A word on the IC50: it is the midpoint of a concentration-inhibition curve. High values mean weaker potency, low ones greater potency. In general, half-life refers to how long it takes for the measured level to halve. Read a high half-life as slow decline.

Chain of STE20-like serine/threonine-protein kinase (Q9H2G2 whole entry, the tested form may be a part): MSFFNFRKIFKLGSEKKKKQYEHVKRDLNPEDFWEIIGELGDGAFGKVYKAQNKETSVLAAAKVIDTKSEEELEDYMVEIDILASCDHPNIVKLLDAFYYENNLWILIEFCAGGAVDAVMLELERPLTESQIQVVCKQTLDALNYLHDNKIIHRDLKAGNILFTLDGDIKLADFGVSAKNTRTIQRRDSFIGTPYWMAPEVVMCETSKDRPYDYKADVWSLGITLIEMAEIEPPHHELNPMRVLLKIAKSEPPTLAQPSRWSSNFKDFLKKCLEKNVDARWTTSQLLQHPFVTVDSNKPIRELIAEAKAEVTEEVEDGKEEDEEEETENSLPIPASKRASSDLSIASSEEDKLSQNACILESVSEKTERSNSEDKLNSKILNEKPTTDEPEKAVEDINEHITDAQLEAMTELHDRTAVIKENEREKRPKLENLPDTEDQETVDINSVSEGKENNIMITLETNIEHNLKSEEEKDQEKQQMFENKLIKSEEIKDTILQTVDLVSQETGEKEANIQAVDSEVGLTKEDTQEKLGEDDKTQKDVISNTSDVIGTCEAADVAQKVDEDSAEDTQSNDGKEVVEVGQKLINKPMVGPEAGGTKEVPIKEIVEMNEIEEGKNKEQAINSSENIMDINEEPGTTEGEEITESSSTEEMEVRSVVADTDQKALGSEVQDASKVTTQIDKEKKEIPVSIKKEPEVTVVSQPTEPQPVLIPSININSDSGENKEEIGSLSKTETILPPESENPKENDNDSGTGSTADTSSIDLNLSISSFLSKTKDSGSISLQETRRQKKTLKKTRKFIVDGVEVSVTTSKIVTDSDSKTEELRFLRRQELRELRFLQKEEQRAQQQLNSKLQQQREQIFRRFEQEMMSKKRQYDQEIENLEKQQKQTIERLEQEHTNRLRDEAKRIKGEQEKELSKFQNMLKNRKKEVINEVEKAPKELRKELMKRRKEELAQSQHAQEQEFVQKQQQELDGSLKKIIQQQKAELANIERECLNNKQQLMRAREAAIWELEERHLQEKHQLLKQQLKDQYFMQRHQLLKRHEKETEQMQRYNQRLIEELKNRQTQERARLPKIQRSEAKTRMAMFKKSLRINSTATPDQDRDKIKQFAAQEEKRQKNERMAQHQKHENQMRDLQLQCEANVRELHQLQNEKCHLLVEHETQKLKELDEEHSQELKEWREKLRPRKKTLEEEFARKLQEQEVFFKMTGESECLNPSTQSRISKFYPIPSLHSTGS

Regarding `C=CC(=O)Nc1cccc(Nc2nc(Nc3ccc(N4CCN(C)CC4)cc3)nc3ccc(F)cc23)c1`, the selectivity ratio came out at 211 in [1] and 130 in data set [2]. The Activity in data set [3] was 1%; in data set [4], 14%; in the data set with A549 it was “Non-Toxic”; in data set [11], “Non-Toxic”; in data set [19] it was “Non-Toxic”. Also, the IC50 stood at 603 nM in data set [5] and 892 nM in data set [6]. Besides, the inhibition entry (in data set [7]; in the data set on Mus musculus [13]; in data set [17]; in [18]) was “Active” throughout. Moreover, the inhibition entry with NCI-H1975 [8], in the data set with NCI-H1975 [9] and with Mus musculus [12] was “Dose-Dependent Effect” in each case. For the same molecule, in data set [10], the half-life is 1.76 h. For the same molecule, the inhibition result in data set [14] and in data set [15] was “inactive” in each case. In addition, the outcome in the data set on NCI-H1975 [16] was Active.
